The values that follow come from ChEMBL document CHEMBL3576838, “Synthesis and in vitro and in vivo biological evaluation of substituted nitroquinoxalin-2-ones and 2,3-diones as novel trichomonacidal agents” (Eur J Med Chem, 2015).

Bounds are passed on as bounds.

Data set [1] in a line: Selectivity index, ratio of CC50 for African green monkey Vero cells to IC50 for Trichomonas vaginalis JH31A#4 trophozite. Format: functional.
Data set [2] deals with Trichomonas vaginalis. Briefly: Trichomonicidal activity against Trichomonas vaginalis C-1:NIH trophozoites infected in NMRI mouse assessed as reduction of pathogenicity at 25 mg/kg/day, po administered for 7 days from day 3 to day 10 post-infection measured at day 15 post-infection. Format: functional.
The test system of data set [3] is Trichomonas vaginalis. Briefly: Trichomonicidal activity against Trichomonas vaginalis JH31A#4 trophozite assessed as inhibition of parasite growth at 37.5 uM after 24 hrs by resazurin redox dye based fluorimetric microtiter method. It is filed as functional. To be noted: JH31A#4, 24 h. A general note: Alamar Blue is a resazurin reagent that responds to reducing activity.

Data set [4] relates to Trichomonas vaginalis. Briefly: Trichomonicidal activity against Trichomonas vaginalis JH31A#4 trophozite assessed as inhibition of parasite growth at 75 uM after 24 hrs by resazurin redox dye based fluorimetric microtiter method. Particulars: JH31A#4, 24 h. It is filed as functional.
The subject of data set [5] is Trichomonas vaginalis. In words: Trichomonicidal activity against Trichomonas vaginalis JH31A#4 trophozite assessed as inhibition of parasite growth at 300 uM after 24 hrs by resazurin redox dye based fluorimetric microtiter method. It is filed as functional. Particulars: JH31A#4, 24 h.
The nature of data set [6]: Cytotoxicity against African green monkey Vero cells assessed as inhibition of cell growth after 24 hrs by resazurin redox dye based fluorimetric microtiter method. Particulars: chlorocebus sabaeus.
The test system of data set [7] is Trichomonas vaginalis. Briefly: Trichomonicidal activity against Trichomonas vaginalis JH31A#4 trophozite assessed as inhibition of parasite growth at 150 uM after 24 hrs by resazurin redox dye based fluorimetric microtiter method. To be noted: JH31A#4, 24 h. It is filed as functional.
In data set [8] the test system is Trichomonas vaginalis. In words: Trichomonicidal activity against Trichomonas vaginalis JH31A#4 trophozite assessed as inhibition of parasite growth at 18.75 uM after 24 hrs by resazurin redox dye based fluorimetric microtiter method. Format: functional. Particulars: JH31A#4, 24 h.
Data set [9] has as its system Trichomonas vaginalis. In words: Trichomonicidal activity against Trichomonas vaginalis JH31A#4 trophozite assessed as inhibition of parasite growth at 9.37 uM after 24 hrs by resazurin redox dye based fluorimetric microtiter method. Particulars: JH31A#4, 24 h. Format: functional.
Data set [10] has as its system Trichomonas vaginalis. Briefly: Trichomonicidal activity against Trichomonas vaginalis JH31A#4 trophozite assessed as inhibition of parasite growth after 24 hrs by resazurin redox dye based fluorimetric microtiter method. To be noted: JH31A#4, 24 h. It is filed as functional, organism-based.
Another data set deals with Vero. Briefly: Cytotoxicity against African green monkey Vero cells at 300 uM after 24 hrs by resazurin redox dye based fluorimetric microtiter method. To be noted: chlorocebus sabaeus. Format: cell-based.
The test system of data set [11] is Trichomonas vaginalis. Briefly: Trichomonicidal activity against Trichomonas vaginalis JH31A#4 trophozite assessed as inhibition of parasite growth at 10 ug/ml after 24 hrs by resazurin redox dye based fluorimetric microtiter method. It is filed as functional. Particulars: JH31A#4, 24 h, read-out: GI.
The next data set relates to Mus musculus. In words: Toxicity against NMRI mouse infected with Trichomonas vaginalis C-1:NIH trophozoites assessed as animal death at 50 to 100 mg/kg, po administered for 7 days from day 3 to day 10 post-infection measured at day 15 post-infection. It is filed as organism-based. To be noted: in vivo, 168 h.
Data set [12] deals with Trichomonas vaginalis. Briefly: Trichomonicidal activity against Trichomonas vaginalis C-1:NIH trophozoites infected in NMRI mouse assessed as reduction of pathogenicity at 100 mg/kg, po administered for 7 days from day 3 to day 10 post-infection measured at day 15 post-infection. It is filed as functional.
Data set [13] has as its system Trichomonas vaginalis. In words: Trichomonicidal activity against Trichomonas vaginalis C-1:NIH trophozoites infected in NMRI mouse assessed as reduction of pathogenicity at 50 mg/kg, po administered for 7 days from day 3 to day 10 post-infection measured at day 15 post-infection. Format: functional.

`Cc1ncc([N+](=O)[O-])n1CCO` [METRONIDAZOLE]: the “Ratio CC50/IC50” value in data set [1] is listed as over 10. Moreover, the inhibition in vivo (usually the relative decrease from the control value, in per cent) at 25 mg/kg/day with Trichomonas vaginalis [2] amounted to 94%. Besides, in the data set with Trichomonas vaginalis [3], the inhibition (commonly how much of the control response was suppressed) at 37.5 µM is 99.4%. For the same molecule, the inhibition at 75 µM in the data set on Trichomonas vaginalis [4] was 100%. In addition, the inhibition at 300 µM in the data set with Trichomonas vaginalis [5] was found to be 100%. Besides, in [6], the cytotoxic concentration (CC50) (usually the concentration at which the toxic effect on the cells reaches its halfway point) at 24 h was over 600 µM. Also, in the data set on Trichomonas vaginalis [7], the inhibition at 150 µM was 100%. Besides, the inhibition at 18.75 µM with Trichomonas vaginalis [8] worked out at 96%. Also, the inhibition at 9.37 µM in the data set with Trichomonas vaginalis [9] was 82.7%. Moreover, in the data set with Trichomonas vaginalis [10], the IC50 (in general, the concentration at which inhibition is half-maximal) turned out to be 4.16 µM. In addition, in the data set with Vero, the Activity turned out to be 0%.
`Cl.O=C1CN(CCCN2CCCCC2)c2ccc([N+](=O)[O-])cc2N1`: the “Ratio CC50/IC50” value in [1] is reported as over 10. Moreover, the inhibition of growth at 10 µg/mL in the data set on Trichomonas vaginalis [11] stood at 7%. Also, in the data set with Trichomonas vaginalis [3], the inhibition at 37.5 µM amounted to 70.3%. Further, the inhibition at 75 µM in the data set with Trichomonas vaginalis [4] amounted to 82.4%. For the same molecule, in the data set on Trichomonas vaginalis [5], the inhibition at 300 µM was 100%. For the same molecule, the figures for the Activity result in the data set with Mus musculus and with Vero were “Non-toxic” and 3.26%, respectively. The CC50 at 24 h in data set [6] was over 300 µM. The inhibition in vivo at 100 mg/kg in the data set with Trichomonas vaginalis [12] was determined as 46.1%. Besides, the inhibition at 150 µM in the data set on Trichomonas vaginalis [7] is 98.9%. In the data set on Trichomonas vaginalis [13], the inhibition in vivo at 50 mg/kg turned out to be 50.7%. Moreover, the inhibition at 18.75 µM with Trichomonas vaginalis [8] stood at 58.4%. Moreover, the inhibition at 9.37 µM with Trichomonas vaginalis [9] is 24.2%. Further, the IC50 in the data set with Trichomonas vaginalis [10] turned out to be 18.3 µM.
Consider `CN(C)CCN1CC(=O)N(C)c2cc([N+](=O)[O-])ccc21`, for which, in data set [1], the “Ratio CC50/IC50” value came to 12.77. For the same molecule, in the data set with Trichomonas vaginalis [11], the inhibition of growth at 10 µg/mL came out at 7%. In addition, the inhibition at 37.5 µM in the data set on Trichomonas vaginalis [3] turned out to be 20.4%. In the data set on Trichomonas vaginalis [4], the inhibition at 75 µM amounted to 73.9%. The inhibition at 300 µM with Trichomonas vaginalis [5] was found to be 100%. Also, the CC50 at 24 h in data set [6] is 648 µM. Moreover, the inhibition at 150 µM in the data set with Trichomonas vaginalis [7] is 99.9%. Besides, the inhibition at 18.75 µM with Trichomonas vaginalis [8] is 6.7%. In addition, the inhibition at 9.37 µM in the data set on Trichomonas vaginalis [9] came out at 1.36%. The IC50 in the data set with Trichomonas vaginalis [10] was 50.7 µM. The molecule also showed an Activity in the data set on Vero of 17.29%.
